Reference: patent US20040208919A1, “Vaccination against prion diseases” (priority 2002, published 2004)
Values joined by “and” are separate entries in the source; they are usually repeats but may differ in a detail not shown here. Equal entries are not always repeated.

System: primary rat hippocampal neurons
Type: cell-based

Q: For “NGAKALMGGHGATKVMVGAAA [PrP 106-126 scrambled, reference compound]”, which Cell death % is on record?
A: Its Cell death % is 3 ± 2% and 8 ± 3%.

Q: Which Cell death % does the source give for WGQGGGTHSQWNKPSKPK [PrP 89-106] here?
A: Its Cell death % is 5 ± 2% and 2 ± 6%.

Q: With WGQPHGGG [PrP 57-64] as the sequence, how does the Cell death % read?
A: Its Cell death % is 0 ± 5% and 3 ± 4%.

Q: For KTNMKHMAGAAAAGAVVGGLG [PrP 106-126], which “Neuronal death, mode and dose dependence” value is on record?
A: The value was “occurred by apoptosis in a dose dependent manner”.

Q: What about the “Neurotoxicity compared with the other synthetic PrP fragments” value of the same sequence?
A: Its value is “most neurotoxic fragment”.
